Source: patent US5616563A, “Glutathione N-hydroxycarbamoyl thioesters and method of inhibiting neoplastic growth” (University of Maryland Baltimore Campus, priority 1994, dated 1997)

How the values were obtained:
[1] = target: bovine liver glyoxalase II (Bos taurus, UniProt Q3B7M2); assay: Substrate and inhibition studies with bovine liver glyoxalase II; settings: for Vm (rel.): relative to Vm for S-D-lactoylglutathione
Experimental: The standard errors for Vm and Km were obtained by analysis of the initial rate data using the HYPER program of Cleland.
^a HEPES buffer (100 mM, pH 7.4), 25° C.
^b Listed values are relative to Vm for SD-lactoylglutathione.
^c Inhibition constants obtained from using the enediol analogs as

[2] = of substituent R; cited from earlier work
[3] = test system: Human Leukemia 60 (HL60) cells; assay: Growth inhibition and kill of human leukemia 60 cells; type: cell-based; settings: HL60, 72 hr. incubation; for IC50: Homo sapiens, HL-60, read-out: GI (concentration for 50% cell growth inhibition)
Experimental: The observation that compounds 2 and 6(c) inhibit tumor cell growth, but were not strongly cytotoxic to tumor cells at the concentrations tested, prompted the synthesis of diethyl esters of compounds 6(a), 6(b), and 6(c). These derivatives were then tested with human leukemia cells (HL60 cells) grown in RPMI/fetal calf serum medium at 37° C.
^c Concentration for 50% cell kill.

Melanoma (UACC-62) = assay: NCI tumor cell growth inhibition, melanoma UACC-62
Description: (§1) ^a Concentration for 50% cell growth inhibition versus nodrug
(§2) ^b Concentration for total cell growth inhibition versus nodrug

Renal Cancer (ACHN) = assay: NCI tumor cell growth inhibition, renal cancer ACHN
Description: as §1, §2

[4] = test system: Non-Small Cell Lung Cancer (HOP-18); assay: NCI tumor cell growth inhibition, non-small cell lung cancer HOP-18
Description: as §1, §2

Colon Cancer (KMZOLZ) = assay: NCI tumor cell growth inhibition, colon cancer KMZOLZ
Description: as §1, §2

CNS Cancer (SNB-75) = assay: NCI tumor cell growth inhibition, CNS cancer SNB-75
Description: as §1, §2

Ovarian Cancer (SK-OV-3) = assay: NCI tumor cell growth inhibition, ovarian cancer SK-OV-3
Description: as §1, §2

human erythrocytes = assay: Erythrocyte uptake of 35S-labeled compounds
Experimental: In order to test the ability of human erythrocytes to take up the above enediol and its ethyl ester derivative, suspensions of washed human erythrocytes were separately incubated with [^35 S] GSH, [^35 S]S-(N-hydroxy N-methylcarbamoyl) glutathione, and with [^35 S] S-(N-hydroxy N-methylcarbamoyl) glutathione[glycyl]-O-ethyl ester. The tests were conducted with 50:50 (v:v) erythrocytes in PBS buffer at 37° C. in the presence of 8.5 mM extracellular [^35 S] labeled compounds.

[5] = HEPES buffer (100 mM, pH 7.4), 25° C.
[6] = Homo sapiens, UACC-62, read-out: inhibition of cell growth
[7] = Homo sapiens, 48 h, read-out: GI (concentration for 50% cell growth inhibition)
[8] = Homo sapiens, read-out: inhibition of cell growth
[9] = Homo sapiens, SK-OV-3, read-out: inhibition of cell growth
[10] = 0 h, 8.5 mM extracellular, 37° C.

SMILES: N[C@@H](CCC(=O)N[C@@H](CSC(=O)N(O)c1ccccc1)C(=O)NCC(=O)O)C(=O)O [Compound 6a, S-(N-Hydroxy N-Phenylcarbamoyl) Glutathione]
- Ki [1]: 11 ± 1.2 µM
- Km ([1]; as substrate, HEPES buffer (100 mM, pH 7.4), 25° C.): 13 ± 2 µM
- Vm (rel.) [1, 5]: (0.46 ± 0.01) × 10^-5
- π (Hansch hydrophobicity constant) [2]: 2.13
- LC50 (concentration for 50% cell kill) [3]: > 1000 µM
- TGI (concentration for total cell growth inhibition) [3]: > 1000 µM
- IC50 [3]: ~100 µM

SMILES: N[C@@H](CCC(=O)N[C@@H](CSC(=O)N(O)c1ccc(Cl)cc1)C(=O)NCC(=O)O)C(=O)O [Compound 6b, S-(N-Hydroxy-N-4-chlorophenylcarbamoyl) glutathione]
- Ki [1]: 3.4 ± 0.8 µM
- Vm (rel.) [1, 5]: (1.5 ± 0.3) × 10^-5
- π (Hansch hydrophobicity constant) [2]: 3.04
- LC50 (concentration for 50% cell kill) [3]: > 1000 µM
- TGI (concentration for total cell growth inhibition) [3]: > 1000 µM
- IC50 [3]: ~100 µM

SMILES: N[C@@H](CCC(=O)N[C@@H](CSC(=O)N(O)c1ccc(Br)cc1)C(=O)NCC(=O)O)C(=O)O [Compound 6c, S-(N-Hydroxy-N-4-bromophenylcarbamoyl) glutathione]
- IC50 (Melanoma (UACC-62); Homo sapiens, UACC-62, 48 h, read-out: GI (concentration for 50% cell growth inhibition)): 126 µM
- inhibition at 10 µM (Melanoma (UACC-62); [6]): ~20%
- inhibition at 100 µM (Melanoma (UACC-62); [6]): 50%
- inhibition of cell growth (Melanoma (UACC-62); UACC-62, 10^-6 M and lower concentrations): minimal inhibition
- LC50 (concentration for 50% cell kill) (Melanoma (UACC-62); UACC-62, 48 hrs. incubation): > 1000 µM
- TGI (concentration for total cell growth inhibition) (Melanoma (UACC-62); UACC-62, 48 hrs. incubation): > 1000 µM
- LC50 (concentration for 50% cell kill) (Renal Cancer (ACHN); 48 hrs. incubation): > 1000 µM
- TGI (concentration for total cell growth inhibition) (Renal Cancer (ACHN); 48 hrs. incubation): ~ 200 μM
- IC50 (Renal Cancer (ACHN); [7]): 25 µM
- inhibition at 10 µM (Renal Cancer (ACHN); [8]): 30%
- inhibition at 100 µM (Renal Cancer (ACHN); [8]): ~95%
- cell growth inhibition ([4]; HOP-18, 10^-6 to 10^-5 M): about 15%
- LC50 (concentration for 50% cell kill) ([4]; HOP-18, 48 hrs. incubation): > 1000 µM
- TGI (concentration for total cell growth inhibition) ([4]; HOP-18, 48 hrs. incubation): ~ 250 μM
- IC50 ([4]; Homo sapiens, HOP-18, 48 h, read-out: GI (concentration for 50% cell growth inhibition)): 40 µM
- inhibition at 100 µM ([4]; Homo sapiens, HOP-18, read-out: cell growth inhibition): ~80%
- Ki [1]: 1.2 ± 0.4 µM
- Vm (rel.) [1, 5]: (2.1 ± 0.4) × 10^-5
- π (Hansch hydrophobicity constant) [2]: 3.25
- IC50 (Colon Cancer (KMZOLZ); [7]): 40 µM
- inhibition at 100 µM (Colon Cancer (KMZOLZ); [8]): 80%
- inhibition of cell growth (Colon Cancer (KMZOLZ); KMZOL2, 10^-6 and 10^-5): about 10%
- LC50 (concentration for 50% cell kill) (Colon Cancer (KMZOLZ); KMZOLZ, 48 hrs. incubation): > 1000 µM
- TGI (concentration for total cell growth inhibition) (Colon Cancer (KMZOLZ); KMZOLZ, 48 hrs. incubation): ~ 320 μM
- inhibition of cell growth (CNS Cancer (SNB-75); CNS human cancer cells, 10^-6 M and 10^-5 M): about 20%
- IC50 (CNS Cancer (SNB-75); Homo sapiens, SNB-75, 48 h, read-out: GI (concentration for 50% cell growth inhibition)): 63 µM
- inhibition at 100 µM (CNS Cancer (SNB-75); Homo sapiens, SNB-75, read-out: inhibition of cell growth): 60%
- LC50 (concentration for 50% cell kill) (CNS Cancer (SNB-75); SNB-75, 48 hrs. incubation): > 1000 µM
- TGI (concentration for total cell growth inhibition) (CNS Cancer (SNB-75); SNB-75, 48 hrs. incubation): ~ 1000 μM
- IC50 (Ovarian Cancer (SK-OV-3); Homo sapiens, SK-OV-3, 48 h, read-out: GI (concentration for 50% cell growth inhibition)): 32 µM
- inhibition at 1 µM (Ovarian Cancer (SK-OV-3); [9]): ~40%
- inhibition at 100 µM (Ovarian Cancer (SK-OV-3); [9]): > 80%
- inhibition of cell growth (Ovarian Cancer (SK-OV-3); SK-OV-3, 10^-5): about 30%
- LC50 (concentration for 50% cell kill) (Ovarian Cancer (SK-OV-3); SK-OV-3, 48 hrs. incubation): > 1000 µM
- TGI (concentration for total cell growth inhibition) (Ovarian Cancer (SK-OV-3); SK-OV-3, 48 hrs. incubation): ~ 250 μM
- LC50 (concentration for 50% cell kill) [3]: ~ 300 μM
- TGI (concentration for total cell growth inhibition) [3]: 63 µM
- IC50 [3]: 20 µM

SMILES: CN(O)C(=O)SC[C@H](NC(=O)CC[C@H](N)C(=O)O)C(=O)NCC(=O)O [[^35 S] .circle-solid., [^35 S] S-(N-Hydroxy N-Methylcarbamoyl) Glutathione]
- Extracellular Total 35S species (human erythrocytes; 0 h): 8.44 mM
- Extracellular [35S] GSH + [35S] GSSG (human erythrocytes; 0 h): ~ 0.01 mM
- Extracellular [35S] S-(N-hydroxy N-methylcarbamoyl) glutathione (human erythrocytes; 0 h): 8.20 mM
- Intracellular Total 35S species (human erythrocytes; [10]): ~ 0 mM
- Extracellular Total 35S species (human erythrocytes; 6 h): 8.57 mM
- Extracellular [35S] GSH + [35S] GSSG (human erythrocytes; 6 h): 0.15 mM
- Extracellular [35S] S-(N-hydroxy N-methylcarbamoyl) glutathione (human erythrocytes; 6 h): 8.32 mM
- Intracellular Total 35S species (human erythrocytes; 6 h): 0.02 mM
- Extracellular Total 35S species (human erythrocytes; 12 h): 8.67 mM
- Extracellular [35S] GSH + [35S] GSSG (human erythrocytes; 12 h): 0.14 mM
- Extracellular [35S] S-(N-hydroxy N-methylcarbamoyl) glutathione (human erythrocytes; 12 h): 8.39 mM
- Intracellular Total 35S species (human erythrocytes; 12 h): 0.03 mM
- Intracellular [35S] GSH + [35S] GSSG (human erythrocytes; 12 h): ~ 0.01 mM
- Intracellular [35S] S-(N-hydroxy N-methylcarbamoyl) glutathione (human erythrocytes; 12 h): ~ 0.01 mM
- Extracellular Total 35S species (human erythrocytes; 24 h): 8.24 mM
- Extracellular [35S] GSH + [35S] GSSG (human erythrocytes; 24 h): 0.14 mM
- Extracellular [35S] S-(N-hydroxy N-methylcarbamoyl) glutathione (human erythrocytes; 24 h): 7.96 mM
- Intracellular Total 35S species (human erythrocytes; 24 h): 0.12 mM
- Intracellular [35S] GSH + [35S] GSSG (human erythrocytes; 24 h): 0.03 mM
- Intracellular [35S] S-(N-hydroxy N-methylcarbamoyl) glutathione (human erythrocytes; 24 h): 0.08 mM
- Extracellular Total 35S species (human erythrocytes; 36 h): 8.24 mM
- Extracellular [35S] GSH + [35S] GSSG (human erythrocytes; 36 h): 0.13 mM
- Extracellular [35S] S-(N-hydroxy N-methylcarbamoyl) glutathione (human erythrocytes; 36 h): 7.96 mM
- Intracellular Total 35S species (human erythrocytes; 36 h): 0.31 mM
- Intracellular [35S] GSH + [35S] GSSG (human erythrocytes; 36 h): 0.04 mM
- Intracellular [35S] S-(N-hydroxy N-methylcarbamoyl) glutathione (human erythrocytes; 36 h): 0.26 mM
- Extracellular Total 35S species (human erythrocytes; 48 h): 8.50 mM
- Extracellular [35S] GSH + [35S] GSSG (human erythrocytes; 48 h): 0.14 mM
- Extracellular [35S] S-(N-hydroxy N-methylcarbamoyl) glutathione (human erythrocytes; 48 h): 8.19 mM
- Intracellular Total 35S species (human erythrocytes; 48 h): 0.44 mM
- Intracellular [35S] GSH + [35S] GSSG (human erythrocytes; 48 h): 0.04 mM
- Intracellular [35S] S-(N-hydroxy N-methylcarbamoyl) glutathione (human erythrocytes; 48 h): 0.37 mM

SMILES: N[C@@H](CCC(=O)N[C@@H](C[35SH])C(=O)NCC(=O)O)C(=O)O [[^35 S] GSH, reference compound]
- Extracellular Total 35S species (human erythrocytes; 0 h): 8.48 mM
- Extracellular [35S] GSH (human erythrocytes; 0 h): 7.95 mM
- Extracellular [35S] GSSG (human erythrocytes; 0 h): 0.43 mM
- Intracellular Total 35S species (human erythrocytes; [10]): ~ 0 mM
- Extracellular Total 35S species (human erythrocytes; 6 h): 8.56 mM
- Extracellular [35S] GSH (human erythrocytes; 6 h): 7.90 mM
- Extracellular [35S] GSSG (human erythrocytes; 6 h): 0.53 mM
- Intracellular Total 35S species (human erythrocytes; 6 h): 0.04 mM
- Intracellular [35S] GSH (human erythrocytes; 6 h): 0.02 mM
- Intracellular [35S] GSSG (human erythrocytes; 6 h): 0.02 mM
- Extracellular Total 35S species (human erythrocytes; 12 h): 8.61 mM
- Intracellular Total 35S species (human erythrocytes; 12 h): 0.05 mM
- Extracellular Total 35S species (human erythrocytes; 24 h): 8.38 mM
- Intracellular Total 35S species (human erythrocytes; 24 h): 0.13 mM
- Extracellular Total 35S species (human erythrocytes; 36 h): 8.37 mM
- Intracellular Total 35S species (human erythrocytes; 36 h): 0.28 mM
- Extracellular Total 35S species (human erythrocytes; 48 h): 8.23 mM
- Extracellular [35S] GSH (human erythrocytes; 48 h): 5.31 mM
- Extracellular [35S] GSSG (human erythrocytes; 48 h): 2.49 mM
- Intracellular Total 35S species (human erythrocytes; 48 h): 0.48 mM
- Intracellular [35S] GSH (human erythrocytes; 48 h): 0.10 mM
- Intracellular [35S] GSSG (human erythrocytes; 48 h): 0.27 mM
